This passage reports chromatographic logP results from patent publication US6369111B1, “Substituted oximes” (priority 1998, dated 2002).

In general, chromatographic logP refers to a lipophilicity value derived from retention on a column. Low readings indicate a more hydrophilic compound, high ones a more lipophilic compound.

Molecules are shown by their SMILES.

The data set in a line: logP determination by HPLC (EEC Directive 79/831 Annex V. A8). Format: physicochemical. The protocol:
The logP values were determined in accordance with EEC Directive 79/831 Annex V. A8 by HPLC (gradient method, acetonitrile/0.1% aqueous phosphoric acid (s) or gradient method, acetonitrile/0.1% water (n))
In turn, `CO/N=C(OC)/C(C)=N/OCc1ccccc1/C(=C\C(=O)OC)OC` [Example 3, methyl 3-methoxy-3-[2-(2-methoxy-2-methoxyimino-1-methyl-ethylideneaminooxymethyl)-phenyl]-acrylate] had a chromatographic logP of 3.05. To `CO/N=C(SC)/C(C)=N/OCc1ccccc1/C(=C\C(=O)OC)OC` [Example 1, methyl 3-methoxy-3-[2-(2-methoxyamino-1-methyl-2-methylthio-ethylideneaminooxymethyl)-phenyl]-acrylate] belongs 3.5; to `CO/N=C(/C(C)=N/OCc1ccccc1/C(=C\C(=O)OC)OC)S(C)(=O)=O` [Example 2, methyl 3-[2-(2-methanesulfonyl-2-methoxyimino-1-methyl-ethylideneaminooxymethyl)-phenyl]-3-methoxy-acrylate], 2.79.
